# Values quoted from earlier work, collected in US20160095850A1, “METHODS AND COMPOSITIONS FOR TREATMENT OF HIV INFECTION” (COOPER HUMAN SYSTEMS LLC, priority 2013, published 2016).
# Columns and labels:
# HDAC3 = HDAC3 (Homo sapiens, UniProt O15379)
# HDAC8 = target: T1, HDAC8 (Homo sapiens, UniProt Q9BY41)
# T1 sequence (Q9BY41 1-377): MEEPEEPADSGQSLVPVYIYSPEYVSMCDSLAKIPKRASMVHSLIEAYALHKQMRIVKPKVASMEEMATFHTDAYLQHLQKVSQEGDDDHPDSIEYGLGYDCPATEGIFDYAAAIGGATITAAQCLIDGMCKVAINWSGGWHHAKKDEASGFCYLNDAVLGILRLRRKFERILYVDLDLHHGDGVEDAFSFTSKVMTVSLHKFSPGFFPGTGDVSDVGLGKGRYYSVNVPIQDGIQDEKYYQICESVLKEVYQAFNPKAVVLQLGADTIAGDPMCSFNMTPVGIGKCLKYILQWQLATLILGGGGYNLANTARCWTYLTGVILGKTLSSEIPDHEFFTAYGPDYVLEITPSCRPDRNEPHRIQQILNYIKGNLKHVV
# [1] = human, in vivo
# [2] = system: HIV-RNA in resting CD4 T cells; conditions: single dose of 400 mg
# [3] = system: HIV RNA expression in CD4 T cells
# [4] = system: HDAC activity in HeLa extracts; conditions: read-out: IC50 for inhibition of HDAC activity
# A549 cells = conditions: read-out: EC50, dose-dependent increase in acetylated histone levels
# HDAC3, sequence (O15379 whole entry): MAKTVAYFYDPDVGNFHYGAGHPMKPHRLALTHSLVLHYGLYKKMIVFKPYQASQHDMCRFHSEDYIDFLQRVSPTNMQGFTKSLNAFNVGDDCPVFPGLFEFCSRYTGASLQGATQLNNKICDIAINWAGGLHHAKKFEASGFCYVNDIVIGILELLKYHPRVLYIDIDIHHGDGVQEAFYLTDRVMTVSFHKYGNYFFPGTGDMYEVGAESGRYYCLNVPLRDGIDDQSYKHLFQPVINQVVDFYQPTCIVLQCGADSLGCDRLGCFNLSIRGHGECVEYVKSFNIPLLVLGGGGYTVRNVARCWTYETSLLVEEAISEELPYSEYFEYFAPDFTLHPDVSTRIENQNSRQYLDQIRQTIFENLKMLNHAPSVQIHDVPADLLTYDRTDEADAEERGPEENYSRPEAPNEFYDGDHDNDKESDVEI
# HDAC3, sequence (Q9Y618 395-489 partner limits assumed): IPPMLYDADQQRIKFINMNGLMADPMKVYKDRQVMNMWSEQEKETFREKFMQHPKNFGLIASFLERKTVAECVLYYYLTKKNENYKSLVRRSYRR
molecule,measurement,setting,value
Cc1cc(Cl)ccc1OCCCC(=O)NO [Droxinostat],IC50,HDAC3,16.9 µM
same,IC50,other HDAC members,> 20 µM
same,IC50,HDAC8,1.46 µM
NCCCCN(Cc1nc2ccccc2[nH]1)[C@H]1CCCc2cccnc21 [AMD070],median estimated terminal half-life,[1],7.6 to 12.6 h
"O=C(CCCCCCC(=O)NO)NO [SBHA, Suberohydroxamic acid]",IC50,HDAC3,0.3 µM
"O=C(CCCCCCC(=O)Nc1ccccc1)NO [Vorinostat, suberoylanilide hydroxamic acid]",evaluated subjects with significantly increased expression of HIV-RNA in isolated resting CD4 T cells,[2],8 of 8
same,course of the induction of HIV RNA,[3],transient and diminished after 24 hours
Nc1ccccc1NC(=O)CCCCCCC(=O)Nc1ccccc1 [BML-210],IC50,[4],80 µM
same,EC50,A549 cells,36 µM
IL-15: cytokine promoting activation and maintenance of NK and CD8 T effector memory cells,expansion of CD8 T(EM) cells in the peripheral blood,CD8 T(EM) cells; 20 μg/kg/d by continuous intravenous infusion for 10 days,100 fold
same,expansion of CD8 T(EM) cells,CD8 T(EM) cells; 20-40 μg/kg/d by subcutaneous injection,10 fold
